Among the data in US12331046B2, “CTPS1 inhibitors and uses thereof” (Nimbus Clotho, Inc., priority 2020, dated 2025) are IC50 values, retold here.

Usually IC50 stands for the concentration needed to halve the response being measured. Low values mean higher potency, high ones lower potency.

Structures can show the parent of a compound that is named as a salt.

This assay deals with human CTPS1 (Homo sapiens (Human), UniProt P17812). Briefly: hCTPS1 biochemical assay (ADP-Glo). To be noted: hCTPS1 25 nM, ATP 120 uM, UTP 160 uM, GTP 60 uM, L-Glutamine 100 uM, 25 degrees C. (ADP-Glo first removes unused ATP, then detects ADP through luciferase.)
Chain of human CTPS1 (P17812 whole entry): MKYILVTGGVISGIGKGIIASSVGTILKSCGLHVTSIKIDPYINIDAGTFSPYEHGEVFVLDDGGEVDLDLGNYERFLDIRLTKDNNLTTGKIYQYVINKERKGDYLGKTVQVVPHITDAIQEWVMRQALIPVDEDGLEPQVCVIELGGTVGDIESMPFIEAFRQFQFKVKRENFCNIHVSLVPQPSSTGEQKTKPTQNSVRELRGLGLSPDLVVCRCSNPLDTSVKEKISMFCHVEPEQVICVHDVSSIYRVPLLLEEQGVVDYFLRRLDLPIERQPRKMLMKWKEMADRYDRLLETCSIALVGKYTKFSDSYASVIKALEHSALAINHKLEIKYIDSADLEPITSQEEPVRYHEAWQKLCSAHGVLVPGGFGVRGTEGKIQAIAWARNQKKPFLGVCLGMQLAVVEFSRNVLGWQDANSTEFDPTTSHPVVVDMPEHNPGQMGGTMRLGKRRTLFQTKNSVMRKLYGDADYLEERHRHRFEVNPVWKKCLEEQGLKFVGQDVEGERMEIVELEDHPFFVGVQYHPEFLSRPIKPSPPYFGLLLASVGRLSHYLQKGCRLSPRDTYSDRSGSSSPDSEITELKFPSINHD
`CCOc1cncc(-c2cnc(C(=O)N[C@@H](CCN3CCCCC3)c3cc(NS(=O)(=O)C4CC4)ccn3)s2)n1` [I-161, (S)—N-(1-(4-(cyclopropanesulfonamido)pyridin-2-yl)-3-(piperidin-1-yl)propyl)-5-(6-ethoxypyrazin-2-yl)thiazole-2-carboxamide]: the half-inhibitory concentration (IC50) is < 100 nM.
Next, `Cc1cc2c(=O)[nH]c3ccc(C(=O)NCc4cc(NS(=O)(=O)C5CC5)ccn4)cc3n2c1` [I-162]: 100 to 1000 nM.
With `CCOc1cncc(-c2cnc(C(=O)N[C@@](C)(CCOC)c3cc(NS(=O)(=O)C4CC4)ccn3)s2)n1` [I-163, (S)—N-(2-(4-(cyclopropanesulfonamido)pyridin-2-yl)-4-methoxybutan-2-yl)-5-(6-ethoxypyrazin-2-yl)thiazole-2-carboxamide], the IC50 was < 100 nM.
For `CCOc1cncc(-c2cnc(C(=O)N[C@H](CCN3CCOCC3)c3cc(NS(=O)(=O)C4CC4)ccn3)s2)n1` [I-164, (R)—N-(1-(4-(cyclopropanesulfonamido)pyridin-2-yl)-3-morpholinopropyl)-5-(6-ethoxypyrazin-2-yl)thiazole-2-carboxamide] the value was < 100 nM; for `CCOc1cncc(-c2cnc(C(=O)N[C@@H](CCN3CCOCC3)c3cc(NS(=O)(=O)C4CC4)ccn3)s2)n1` [I-165, (S)—N-(1-(4-(cyclopropanesulfonamido)pyridin-2-yl)-3-morpholinopropyl)-5-(6-ethoxypyrazin-2-yl)thiazole-2-carboxamide], < 100 nM; for `CCOc1cncc(-c2cnc(C(=O)NC(CCCN)c3cc(NS(=O)(=O)C4CC4)ccn3)s2)n1` (stereo not shown) [I-166, N-(4-amino-1-(4-(cyclopropanesulfonamido)pyridin-2-yl)butyl)-5-(6-ethoxypyrazin-2-yl)thiazole-2-carboxamide], < 100 nM.
For `CCOc1cncc(-c2cnc(C(=O)N3CCNC[C@@H]3c3ccnc(NS(=O)(=O)C4CC4)n3)s2)n1` [I-167, (R)—N-(4-(1-(5-(6-ethoxypyrazin-2-yl)thiazole-2-carbonyl)piperazin-2-yl)pyrimidin-2-yl)cyclopropanesulfonamide] the value was ≥ 1000 nM; for `CCOc1cncc(-c2cnc(C(=O)N3CCNC[C@H]3c3ccnc(NS(=O)(=O)C4CC4)n3)s2)n1` [I-168, (S)—N-(4-(1-(5-(6-ethoxypyrazin-2-yl)thiazole-2-carbonyl)piperazin-2-yl)pyrimidin-2-yl)cyclopropanesulfonamide], 100 to 1000 nM; for `O=C(NCc1cc(NS(=O)(=O)C2CC2)ccn1)c1ncc(-c2cnc3ccc(Cl)cn23)s1` [I-170], 100 to 1000 nM.
Next, `CCc1nc2cc(C(=O)NCc3cc(NS(=O)(=O)C4CC4)ccn3)ccc2[nH]c1=O` [I-171, N-((4-(cyclopropanesulfonamido)pyridin-2-yl)methyl)-3-ethyl-2-oxo-1,2-dihydroquinoxaline-6-carboxamide]: ≥ 1000 nM.
Take `CCOc1cncc(-c2cnc(C(=O)N[C@H](C[C@H]3CCCCN3)c3cc(NS(=O)(=O)C4CC4)ccn3)s2)n1` [I-172, N—((R)-1-(4-(cyclopropanesulfonamido)pyridin-2-yl)-2-((R)-piperidin-2-yl)ethyl)-5-(6-ethoxypyrazin-2-yl)thiazole-2-carboxamide]: the half-inhibitory concentration (IC50) was < 100 nM.
For `CCOc1cncc(-c2cnc(C(=O)NC(CCCN(C)C)c3cc(NS(=O)(=O)C4CC4)ccn3)s2)n1` (stereo not shown) [I-173, N-(1-(4-(cyclopropanesulfonamido)pyridin-2-yl)-4-(dimethylamino)butyl)-5-(6-ethoxypyrazin-2-yl)thiazole-2-carboxamide, formic acid salt], the half-maximal inhibitory concentration (IC50) was < 100 nM.
Next, `CCC(NC(=O)c1ncc(-c2cnn3ccc(Cl)cc23)s1)c1cc(NS(=O)(=O)C2CC2)ccn1` (stereo not shown) [I-174]: < 100 nM; `CCOc1cncc(-c2cnc(C(=O)NC(CCN3CCCC3)c3cc(NS(=O)(=O)C4CC4)ccn3)s2)n1` (stereo not shown) [I-175, N-(1-(4-(cyclopropanesulfonamido)pyridin-2-yl)-3-(pyrrolidin-1-yl)propyl)-5-(6-ethoxypyrazin-2-yl)thiazole-2-carboxamide]: < 100 nM; `CCOc1cncc(-c2cnc(C(=O)NC(CCN3CCCCC3)c3cc(NS(=O)(=O)C4CC4)ccn3)s2)n1` (stereo not shown) [I-176, N-(1-(4-(cyclopropanesulfonamido)pyridin-2-yl)-3-(piperidin-1-yl)propyl)-5-(6-ethoxypyrazin-2-yl)thiazole-2-carboxamide]: < 100 nM.
For `O=C(NCc1cc(NS(=O)(=O)C2CC2)ccn1)c1ncc(-c2cnn3ccc(C(F)(F)F)cc23)s1` [I-177] the value was < 100 nM.
Next, `CCOc1cncc(-c2cnc(C(=O)NC(C)(CCOC)c3cc(NS(=O)(=O)C4CC4)ccn3)s2)n1` (stereo not shown) [I-178]: 100 to 1000 nM.
Regarding `CCOc1cncc(-c2cnc(C(=O)NC(CCN3CCOCC3)c3cc(NS(=O)(=O)C4CC4)ccn3)s2)n1` (stereo not shown) [I-179, N-(1-(4-(cyclopropanesulfonamido)pyridin-2-yl)-3-morpholinopropyl)-5-(6-ethoxypyrazin-2-yl)thiazole-2-carboxamide], the IC50 was < 100 nM.
For `CCc1nc2ccc(C(=O)NCc3cc(NS(=O)(=O)C4CC4)ccn3)cc2[nH]c1=O` [I-180, N-((4-(cyclopropanesulfonamido)pyridin-2-yl)methyl)-2-ethyl-3-oxo-3,4-dihydroquinoxaline-6-carboxamide] the value was ≥ 1000 nM; for `CCOc1cncc(-c2cnc(C(=O)N3CCNCC3c3ccnc(NS(=O)(=O)C4CC4)n3)s2)n1` (stereo not shown) [I-181, N-(4-{1-[5-(6-ethoxypyrazin-2-yl)-1,3-thiazole-2-carbonyl]piperazin-2-yl}pyrimidin-2-yl)cyclopropanesulfonamide], 100 to 1000 nM; for `CCOc1cncc(-c2cnc(C(=O)NC(CCN3CCC3)c3cc(NS(=O)(=O)C4CC4)ccn3)s2)n1` (stereo not shown) [I-182, N-(3-(azetidin-1-yl)-1-(4-(cyclopropanesulfonamido)pyridin-2-yl)propyl)-5-(6-ethoxypyrazin-2-yl)thiazole-2-carboxamide], ≥ 1000 nM.
Next, `CCOc1cncc(-c2cnc(C(=O)N[C@@H](CCOC)c3cc(NS(=O)(=O)C4CC4)ccn3)s2)n1` [I-183, (S)—N-(1-(4-(cyclopropanesulfonamido)pyridin-2-yl)-3-methoxypropyl)-5-(6-ethoxypyrazin-2-yl)thiazole-2-carboxamide]: < 100 nM; `CCOc1cncc(-c2cnc(C(=O)N[C@H](CCOC)c3cc(NS(=O)(=O)C4CC4)ccn3)s2)n1` [I-184, (R)—N-(1-(4-(cyclopropanesulfonamido)pyridin-2-yl)-3-methoxypropyl)-5-(6-ethoxypyrazin-2-yl)thiazole-2-carboxamide]: < 100 nM; `Cc1cc2c(-c3cnc(C(=O)NCc4cc(NS(=O)(=O)C5CC5)ccn4)s3)cncn2n1` [I-185]: 100 to 1000 nM.
Next, `CCOc1cncc(-c2cnc(C(=O)NC(CCOC)c3cc(NS(=O)(=O)C4CC4)ccn3)s2)n1` (stereo not shown) [I-186]: < 100 nM; `CCOc1cncc(-c2cnc(C(=O)N[C@@H](COC)c3cc(NS(=O)(=O)C4CC4)ccn3)s2)n1` [I-187]: < 100 nM; `CCOc1cncc(-c2cnc(C(=O)N[C@H](COC)c3cc(NS(=O)(=O)C4CC4)ccn3)s2)n1` [I-188]: < 100 nM.
For `CCOc1cncc(-c2cnc(C(=O)N[C@H](CCN(C)C)c3cc(NS(=O)(=O)C4CC4)ccn3)s2)n1` [I-189, (R)—N-(1-(4-(cyclopropanesulfonamido)pyridin-2-yl)-3-(dimethylamino)propyl)-5-(6-ethoxypyrazin-2-yl)thiazole-2-carboxamide], the IC50 was < 100 nM.
For `CCOc1cncc(-c2cnc(C(=O)N[C@@H](CCN(C)C)c3cc(NS(=O)(=O)C4CC4)ccn3)s2)n1` [I-190, (S)—N-(1-(4-(cyclopropanesulfonamido)pyridin-2-yl)-3-(dimethylamino)propyl)-5-(6-ethoxypyrazin-2-yl)thiazole-2-carboxamide] the value was < 100 nM; for `O=C(NCc1cc(NS(=O)(=O)C2CC2)ccn1)c1ncc(-n2cnc3ccc(Cl)cc32)s1` [I-193, 5-(6-chloro-1H-benzo[d]imidazol-1-yl)-N-((4-(cyclopropanesulfonamido)pyridin-2-yl)methyl)thiazole-2-carboxamide], 100 to 1000 nM; for `CCOc1cncc(-c2cnc(C(=O)NC(COC)c3cc(NS(=O)(=O)C4CC4)ccn3)s2)n1` (stereo not shown) [I-194], < 100 nM.
For `CCOc1cncc(-c2ccc(C(=O)NCc3nc(NS(=O)(=O)C4CC4)cs3)nc2)n1` [I-195, N-[(4-cyclopropanesulfonamido-1,3-thiazol-2-yl)methyl]-5-(6-ethoxypyrazin-2-yl)pyridine-2-carboxamide] the value was 100 to 1000 nM; for `CCc1ccn2ncc(-c3cnc(C(=O)NCc4cc(NS(=O)(=O)C5CC5)ccn4)s3)cc12` [I-196, N-((4-(cyclopropanesulfonamido)pyridin-2-yl)methyl)-5-(5-ethylpyrrolo[1,2-b]pyridazin-3-yl)thiazole-2-carboxamide], < 100 nM.
Next, `O=C(NCc1cc(NS(=O)(=O)C2CC2)ccn1)c1ncc(-c2cnn3ccc(Cl)cc23)s1` [I-197]: < 100 nM; `CCOc1cncc(-c2cnc(C(=O)N[C@@H](CN3CCCC3)c3cc(NS(=O)(=O)C4CC4)ccn3)s2)n1` [I-198, (S)—N-(1-(4-(cyclopropanesulfonamido)pyridin-2-yl)-2-(pyrrolidin-1-yl)ethyl)-5-(6-ethoxypyrazin-2-yl)thiazole-2-carboxamide]: < 100 nM; `CCOc1cncc(-c2cnc(C(=O)N[C@H](CN3CCCC3)c3cc(NS(=O)(=O)C4CC4)ccn3)s2)n1` [I-199, (R)—N-(1-(4-(cyclopropanesulfonamido)pyridin-2-yl)-2-(pyrrolidin-1-yl)ethyl)-5-(6-ethoxypyrazin-2-yl)thiazole-2-carboxamide]: < 100 nM.
`O=C(NCc1cc(NS(=O)(=O)C2CC2)ccn1)c1ncc(-c2cnn3cccc3c2)s1` [I-200, N-((4-(cyclopropanesulfonamido)pyridin-2-yl)methyl)-5-(pyrrolo[1,2-b]pyridazin-3-yl)thiazole-2-carboxamide] had an IC50 of 100 to 1000 nM.
